Laboratory results as given in patent US6943278B2, “Transgenic Drosophila having a disrupted Parkin gene and exhibits reduced climbing ability” (GenExel, Inc., priority 2002, dated 2005).

Key:
Format in all cases: in vivo, Drosophila
wild type flies = assay: climbing ability of wild type flies fed D- or L-dopa; conditions: for effect on climbing response (in words): wild type flies fed 1 mM compound for 10 days; for % climbing abilities, WT: wild type flies fed 1 mM compound on dry yeast for 10 days
Procedure: (§1) parkin mutant flies older than 3-4 days after eclosion moved extremely slowly or not at all, remaining on the bottom of the culture vials. To quantify the locomotor behavioral defects of parkin mutant flies, the climbing ability of the mutants was examined. To do so, fifteen flies were placed in a plastic vial, and gently tapped to the bottom of the vial. The number of flies at the top of the vial was counted after 18 seconds of climbing. Ten trials were performed for each time point. The trial numbers were then averaged, and the resulting mean was normalized by the mean value of 1-day-old wild type. These used as the climbing scores for each single group of flies on a particular day. The experiment was repeated five times, with independently derived transgenic lines. The climbing score for five repeated experiments was then averaged, and a group mean and standard error were obtained. As previously reported (Ganetzky and Flanagan, Exp. Gerontol., 13:189 (1978); Le Bourg and Lints, Gerontology 8:59 (1992); Feany and Bender, 2000; Pendleton et al., J. Pharmacol. Exp. Ther. 300:91 (2002)), wild type flies rapidly climb to the top of a vial when tapped to the bottom, and have a strong tendency to remain at the top. However, as the flies get older, they no longer climb to the top of the vial, in other words they lose climbing ability (Ganetzky and Flanagan, 1978; Le Bourg and Lints, 1992; Feany and Bender, 2000; Pendleton et al., 2002).
(§2) A compound was screened for its ability to rescue the defective climbing response of Dpark^1 and Dpark^2 mutants. Flies were reared and crossed on Caltech medium (Ashbumer, Drosophila, Cold Spring Harbor, N.Y.: Cold Spring Harbor Laboratory Press (1989)) at 25° C. Wild type or parkin mutant flies were fed either L-DOPA or D-DOPA for 10 days by placing dry yeast that was soaked with 0.3 mL of either 1 mM L-DOPA or 1 mM D-DOPA on the bottom of the vial.

[1] = tested on: Dpark^1 parkin mutant flies; assay: rescue of defective climbing response of Dpark^1 mutant flies; conditions: for % climbing abilities, Dpark1/Dpark1: Dpark1/Dpark1 flies fed 1 mM compound on dry yeast for 10 days, relative to unfed wild type control; for effect on climbing response (in words): Dpark^1 flies fed 1 mM compound for 10 days
Procedure: as §1, §2

[2] = tested on: Dpark^2 parkin mutant flies; assay: rescue of defective climbing response of Dpark^2 mutant flies; conditions: for % climbing abilities, Dpark2/Dpark2: Dpark2/Dpark2 flies fed 1 mM compound on dry yeast for 10 days, relative to unfed wild type control; for effect on climbing response (in words): Dpark^2 flies fed 1 mM compound for 10 days
Procedure: as §1, §2

| SMILES | effect on climbing response (in words) (wild type flies) | % climbing abilities, WT (wild type flies) [%] | % climbing abilities, Dpark1/Dpark1 [1] [%] | % climbing abilities, Dpark1/Dpark1 ([1]; listed as L-DOPA) [%] | effect on climbing response (in words) [1] | % climbing abilities, Dpark2/Dpark2 [2] [%] | % climbing abilities, Dpark2/Dpark2 ([2]; listed as L-DOPA) [%] | effect on climbing response (in words) [2] |
| --- | --- | --- | --- | --- | --- | --- | --- | --- |
| N[C@@H](Cc1ccc(O)c(O)c1)C(=O)O [L-dopa, L-DOPA] | Neither L-DOPA nor D-DOPA was effective | 100.59 ± 2.73 | 68.20 ± 6.06 | ~70 | significantly restored the climbing response | 68.51 ± 10.09 | ~70 | significantly restored the climbing response |
| N[C@H](Cc1ccc(O)c(O)c1)C(=O)O [D-dopa, D-DOPA] | Neither L-DOPA nor D-DOPA was effective | 101.90 ± 2.72 | 33.221 ± 1.87 | – | not effective | 37.75 ± 2.44 | – | not effective |
